Data on eight molecules can be found in patent publication US20160122320A1, “USEFUL COMBINATIONS OF MONOBACTAM ANTIBIOTICS WITH BETA-LACTAMASE INHIBITORS” (Basilea Pharmaceutica AG, priority 2005, published 2016).

Among the test systems are Serratia marcescens S6; Enterobacter cloacae P99; Acinetobacter sp. J2.
What all share (assay): MIC, NCCLS broth microdilution
Type in all cases: cell-based
Holding throughout (details): for MIC of antibiotic: antibiotic alone, no inhibitor; for MIC of antibiotic at fixed inhibitor concentration (4 mg/L): MIC of antibiotic compound 1 with the labelled bridged monobactam of formula II and clavulanate, 4 mg/L each

The test system of test [1] is Stenotrophomonas malthophilia 1AC736.
Test [2] deals with Pseudomonas aeruginosa 1973E. Put shortly: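 Broth microdilution following NCCLS M7-A5, with final DMSO ≤1%. Plates were incubated overnight at 30° C. or 37° C. and growth was read by eye; MIC is the lowest concentration giving complete inhibition of visible growth. In combination tests the formula I compound was serially diluted while partner compounds were held at 4 μg/mL each.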

In test [3] the test system is Pseudomonas aeruginosa MK1184.
In test [4] the test system is Klebsiella pneumoniae CF104.
The mark [5] stands for this setting: Stenotrophomonas maltophilia 1AC736.
[6] abbreviates: Stenotrophomonas malthophilia 1AC736.

“And” between values parts separate entries of the source, which are not always exact repeats. Equal values may be shown once.

As for `CC1C(NC(=O)C(=NOCc2cc(=O)c(O)cn2O)c2nsc(N)n2)C(=O)N1S(=O)(=O)O` (stereo not drawn) [Compound 2], the MIC of antibiotic in the test with Serratia marcescens S6 is on record as more than 32 mg/L; in test [1] (setting [5]) it was 4 mg/L; with Enterobacter cloacae P99, more than 32 mg/L; in test [2], 8 mg/L; in test [3] it was 8 mg/L; in the test with Acinetobacter sp. J2 (Acinetobacter baumannii J2), 4 mg/L. For the same molecule, the MIC of antibiotic in test [4] was more than 32 mg/L. Besides, the “MIC of antibiotic at fixed inhibitor concentration of 4 mg/L” value is reported as more than 32 mg/L in the test with Serratia marcescens S6 (with 206 and clavulanate); 0.5 mg/L in test [1] (Stenotrophomonas maltophilia 1AC736, with 206 and clavulanate); 16 mg/L with Enterobacter cloacae P99 (with 206 and clavulanate); 8 mg/L in test [2] (with 206 and clavulanate); 16 mg/L in test [3] (with 206 and clavulanate); 16 mg/L in the test with Acinetobacter sp. J2 (Acinetobacter baumannii J2, with 206 and clavulanate). Moreover, in test [4] (with 206 and clavulanate), the “MIC of antibiotic at fixed inhibitor concentration of 4 mg/L” value is recorded as 8 mg/L.
Take `CC1(C)S[C@@H]2[C@H](NC(=O)[C@H](N)c3ccccc3)C(=O)N2[C@H]1C(=O)O` [Ampicillin, ampicillin, reference compound]: the “MIC of antibiotic at fixed inhibitor concentration of 4 mg/L” value is reported as more than 32 mg/L with Serratia marcescens S6 (with sulbactam); 32 mg/L in test [1] (Stenotrophomonas maltophilia 1AC736, with sulbactam); more than 32 mg/L in the test on Enterobacter cloacae P99 (with sulbactam); more than 32 mg/L in test [2] (with sulbactam); more than 32 mg/L in test [3] (with sulbactam); 32 mg/L in the test on Acinetobacter sp. J2 (Acinetobacter baumannii J2, with sulbactam). For the same molecule, the “MIC of antibiotic at fixed inhibitor concentration of 4 mg/L” value in test [4] (with sulbactam) is on record as more than 32 mg/L.
Consider `CO/N=C(\C(=O)N[C@@H]1C(=O)N2C(C(=O)[O-])=C(C[N+]3(C)CCCC3)CS[C@H]12)c1csc(N)n1` [Cefepime], for which the MIC of antibiotic is 0.13 mg/L and 0.125 mg/L in the test on Serratia marcescens S6; 4 mg/L in test [1] (setting [6]); 4 mg/L in test [1] (setting [5]); 2 mg/L in the test with Enterobacter cloacae P99; 4 mg/L in test [2]; 32 mg/L in test [3]. In addition, the MIC of antibiotic is listed as 32 mg/L in the test with Acinetobacter sp. J2 (Acinetobacter baumannii J2), 32 mg/L in the test on Acinetobacter sp. J2 (Acinetobacter sp. J2) and 4 mg/L in test [4].
For `CN(C)CCNC(=O)c1ccc(NC(=O)N2CC[C@@H]3[C@H]2C(=O)N3S(=O)(=O)[O-])cc1.[Na+]` [Compound 310, Sodium(1S,5R)-2-[N-(4-{N-[2-(dimethylamino)ethyl]carbamoyl}phenyl)carbamoyl]-7-oxo-2,6-diazabicyclo[3.2.0]heptane-6-sulfonate], the “MIC of antibiotic at fixed inhibitor concentration (4 mg/L)” value with Serratia marcescens S6 was 0.5 mg/L; in test [1] (setting [6]), 0.125 mg/L; with Enterobacter cloacae P99 it was 4 mg/L; in test [2] it was 4 mg/L; in test [3], 16 mg/L; with Acinetobacter sp. J2 (Acinetobacter sp. J2) it was more than 32 mg/L. Besides, the “MIC of antibiotic at fixed inhibitor concentration (4 mg/L)” value in test [4] is 2 mg/L.
As to `O=C(Nc1ccc(O)c(O)c1)N1CC[C@@H]2[C@H]1C(=O)N2S(=O)(=O)[O-].[Na+]` [Compound 306, Sodium(1S,5R)-2-[N-(3,4-dihydroxyphenyl)carbamoyl]-7-oxo-2,6-diazabicyclo[3.2.0]heptane-6-sulfonate], the “MIC of antibiotic at fixed inhibitor concentration (4 mg/L)” value was 0.5 mg/L with Serratia marcescens S6; 0.25 mg/L in test [1] (setting [6]); 32 mg/L with Enterobacter cloacae P99; 4 mg/L in test [2]; more than 32 mg/L in test [3]; more than 32 mg/L in the test on Acinetobacter sp. J2 (Acinetobacter sp. J2). The “MIC of antibiotic at fixed inhibitor concentration (4 mg/L)” value in test [4] turned out to be 2 mg/L.
`NC(C(=O)N1CC[C@@H]2[C@H]1C(=O)N2S(=O)(=O)O)c1ccc(O)c(O)c1` (stereo partly drawn) [Compound 403]: the “MIC of antibiotic at fixed inhibitor concentration (4 mg/L)” value is on record as 0.5 mg/L in the test with Serratia marcescens S6; 0.125 mg/L in test [1] (setting [6]); 32 mg/L with Enterobacter cloacae P99; 2 mg/L in test [2]; more than 32 mg/L in test [3]; 8 mg/L with Acinetobacter sp. J2 (Acinetobacter sp. J2). Also, the “MIC of antibiotic at fixed inhibitor concentration (4 mg/L)” value in test [4] was 4 mg/L.
`O=C(Nc1cccc(O)c1)N1CC[C@@H]2[C@H]1C(=O)N2S(=O)(=O)[O-].[Na+]` [Compound 317]: the “MIC of antibiotic at fixed inhibitor concentration (4 mg/L)” value in the test with Serratia marcescens S6 is reported as 0.25 mg/L; in test [1] (setting [6]), 0.125 mg/L; in the test with Enterobacter cloacae P99 it was 8 mg/L; in test [2], 8 mg/L; in test [3], more than 32 mg/L; with Acinetobacter sp. J2 (Acinetobacter sp. J2) it was 16 mg/L. The “MIC of antibiotic at fixed inhibitor concentration (4 mg/L)” value in test [4] was found to be 0.5 mg/L.
Turning to `CC1C(NC(=O)C(=NOCc2cc(=O)c(O)cn2O)c2noc(N)n2)C(=O)N1S(=O)(=O)O` (stereo not drawn) [Compound 16], the MIC of antibiotic (in the test with Serratia marcescens S6; in test [1] (setting [5]); with Enterobacter cloacae P99; in test [2]; in test [3]; with Acinetobacter sp. J2 (Acinetobacter baumannii J2)) was more than 32 mg/L in each case. In addition, the MIC of antibiotic in test [4] is more than 32 mg/L. Besides, the “MIC of antibiotic at fixed inhibitor concentration of 4 mg/L” value in the test on Serratia marcescens S6 (with 102 and clavulanate) was more than 32 mg/L; in test [1] (Stenotrophomonas maltophilia 1AC736, with 102 and clavulanate) it was 2 mg/L; with Enterobacter cloacae P99 (with 102 and clavulanate) it was more than 32 mg/L; in test [2] (with 102 and clavulanate) it was 16 mg/L; in test [3] (with 102 and clavulanate), 16 mg/L; in the test with Acinetobacter sp. J2 (Acinetobacter baumannii J2, with 102 and clavulanate) it was 16 mg/L. In addition, the “MIC of antibiotic at fixed inhibitor concentration of 4 mg/L” value in test [4] (with 102 and clavulanate) turned out to be 32 mg/L.
